Assay results from patent US20080058271A1, “Prevention of primary sjogren' s Syndrome by ICA69 deficiency” (priority 2002, published 2008).
Ends that are not written are not given here.

What was measured:
[1] = test system: peripheral blood mononuclear cells (PBMC); assay: Human T cell proliferative responses in PBMC; format: cell-based; details: for T cell responses to control antigens (stimulation index): PBMC of primary SS, SLE patients and healthy controls; for T cell responses in patients with SLE and in healthy controls / patients with primary SS with positive T cell responses: PBMC; for T cell responses in patients with SLE and in healthy controls: SLE n=6, healthy controls n=12; for patients with primary SS with positive T cell responses: n=9, P 0.008 vs. SLE, P 0.004 vs. healthy controls
Procedure: FIG. 7.(A) T cell responses to ICA69, BSA, Tep69, and ABBOS were analyzed in patients with primary SS (n=9) SLE patients (n=6) or healthy controls (n=12). Positive responses to tetanus toxoid (TT) contrasted with negative responses to OVA, actin or the type 1 diabetes-associated GAD65 peptide, p555. Data are expressed as stimulation index (SI, experimental/background cpm, as described herein). Background counts were similar in all cohorts (mean±SD: 1154±354 cpm). FIG. 8. Autoantibodies to ICA69 (1 μg protein/lane) were detected in Western blots of sera (1 to 1000 dilution) from patients with pSS (lanes 1-5) but not in controls (lanes 6-8).
Blood samples were obtained from patients (n=15) with primary SS or SLE at the Arthritis Center at Toronto Western Hospital and from healthy, adult volunteers through ethics-board approved consent (n=12). pSS patients were female, had documented xerostomia and xerophthalmia and met San Diego disease criteria. All were anti-Ro antibody positive, 6 had anti-fodrin autoantibodies and all had minor salivary gland biopsy focus scores of >5. Healthy controls (n=12) of similar age and gender profile were recruited from staff. Fresh blood was used for T cell studies. In immunoblotting experiments, sera from patients and controls were diluted at 1:1000 and blotted on nitrocellulose containing […] of recombinant ICA69 protein to detect the presence of anti-ICA69 antibodies.
(§1) NOD lymph-node, spleen and human peripheral blood T cell responses were measured with three slightly different protocols. Draining lymph node cells from 10 week old NOD females were pooled. 2×10^5 lymph node cells along with 2×10^5 irradiated (1100 rad) syngeneic spleen cells were cultured in serum-free AIM-V media (Life Technologies, Mississauga, Ontario, Canada) in the presence of protein or peptide antigen. Proteins (ICA69, BSA or OVA) were used at concentrations of […], peptides (Tep69, ABBOS) at […]. After 72 hr of incubation, cultures were pulsed overnight with […] of [^3H]thymidine, harvested and subjected to liquid scintillation counting. Experiments were repeated three times with similar results, each with lymph nodes pooled from groups of 4-7 mice. Proliferation assays with spleen cells used 4×10^5 responding cells/well and no irradiated splenocytes. For the detection of human T cell responses, Ficoll-Hypaque purified peripheral blood mononuclear cells (PBMC) were cultured at 10^5 cells/well for one week in serum-free Hybrimax 2897 medium (Sigma) supplemented with human IL-2 (10 U/well) and 0.01-10 mg of antigen^15. This assay performed well in a large, blinded study and in the first international T cell workshop of the Immunology of Diabetes Society^22.
Proliferative T cell responses were expressed as stimulation index (SI, experimental/control cpm). SI's greater than the mean SI in OVA-stimulated cultures plus 3 SD were deemed positive^15. Numeric data were compared by Mann-Whitney tests, Fisher's exact test was used to analyze tables. All P values were two-tailed and significance was set at 5%. Figures present mean values plus lSD.
To determine if ICA69 was an autoimmune target in patients with primary SS, we first measured T cell responses to ICA69 and Tep69 in PBMC from patients with primary SS (n=9), systemic lupus erythematosus (SLE, n=6) and age-matched healthy controls (n=12) (FIG. 7A).

MHC class II = details: reference 21; cited from earlier work
NOD lymph node cells = assay: T cell proliferative responses in draining lymph node cells; format: cell-based, mouse; details: 10 week old NOD females, pooled lymph node cells
Procedure: FIG. 2. T cell proliferative responses to ICA69, its dominant epitope, Tep69, BSA, and its dominant NOD mouse epitope, ABBOS, were measured in lymph nodes draining the pancreas (A), and submandibular glands (B), or lymph nodes draining the lower (C) or upper (D) extremities. Gray columns: control cultures stimulated with ovalbumin (OVA) or Medium (MED) only. To obtain sufficient cell numbers, lymph node cells were pooled from seven mice. One of three similar data sets is shown.
as §1
This phenotype could reflect a role for ICA69 as an autoantigen or a role for ICA69 protein-function. To begin an analysis of these two alternatives, we measured T cell autoreactivity to ICA69 and its immunodominant T cell epitope, Tep69, in 10 week old NOD females. Proliferative in vitro recall responses were assessed in draining lymph nodes from various tissues, in order to localize where T cell tolerance to ICA69 was lost. […] Spleen cell responses to ICA69, Tep69, BSA and ABBOS were present as previously described by us^21 and others^24 (data not shown, but for example see FIG. 3F).

[2] = test system: NOD mouse sialoadenitis (submandibular gland mononuclear foci); details: single i.p. 200 mg ABBOS in IFA, 10 wk old NOD females
[3] = test system: NOD mouse pSS (salivary disease); details: instantly disclosed protocol

Molecule: TT: tetanus toxoid, positive control antigen
- T cell responses to control antigens (stimulation index) [1]: Positive

Molecule: AFIKATGKKEDE [Tep69]
- MHC class II affinity (MHC class II): very low
- T cell responses in patients with SLE and in healthy controls [1]: absent
- patients with primary SS with positive T cell responses [1]: 8 of 9
- T cell proliferative responses in pancreatic and submandibular lymph node cells (NOD lymph node cells): detected
- T cell proliferative responses in popliteal or axillary lymph nodes (NOD lymph node cells): not in popliteal or axillary lymph nodes

Molecule: actin
- T cell responses to control antigens (stimulation index) [1]: negative

Molecule: OVA: Ovalbumin (Sigma), control antigen
- T cell responses to control antigens (stimulation index) [1]: negative

Molecule: FKADEKKFWGKYLYE [ABBOS, FKADEKKFWGKYLYE]
- mice with moderate disease exacerbation [2]: 12%
- mice with moderate disease exacerbation (of mice analyzed) [2]: 2/17
- disease acceleration with the optimized treatment protocol [3]: no acceleration

B1: ICA69: Human recombinant islet cell autoantigen 69 kDa (protein)
chain: MSGHKCSYPWDLQDRYAQDKSVVNKMQQKYWETKQAFIKATGKKEDEHVVASDADLDAKLELFHSIQRTCLDLSKAIVLYQKRICFLSQEENELGKFLRSQGFQDKTRAGKMMQATGKALCFSSQQRLALRNPLCRFHQEVETFRHRAISDTWLTVNRMEQCRTEYRGALLWMKDVSQELDPDLYKQMEKFRKVQTQVRLAKKNFDKLKMDVCQKVDLLGASRCNLLSHMLATYQTTLLHFWEKTSHTMAAIHESFKGYQPYEFTTLKSLQDPMKKLVEKEEKKKINQQESTDAAVQEPSQLISLEEENQRKESSSFKTEDGKSILSALDKGSTHTACSGPIDELLDMKSEEGACLGPVAGTPEPEGADKDDLLLLSEIFNASSLEEGEFSKEWAAVFGDGQVKEPVPTMALGEPDPKAQTGSGFLPSQLLDQNMKDLQASLQEPAKAASDLTAWFSLFADLDPLSNPDAVGKTDKEHELLNA
- T cell responses in patients with SLE and in healthy controls [1]: absent
- patients with primary SS with positive T cell responses [1]: 8 of 9
- T cell proliferative responses in pancreatic and submandibular lymph node cells (NOD lymph node cells): detected
- T cell proliferative responses in popliteal or axillary lymph nodes (NOD lymph node cells): not in popliteal or axillary lymph nodes
